Like-named read-outs stand apart in the source and are kept apart here.
Columns and labels:
[1] = test system: NHEK (normal human epidermal keratinocytes); assay: Minimal growth assay: proliferation by DNA amount (CyQuant Direct Cell Proliferation Assay kit) of NHEK in MGM plus test compounds; format: cell-based; settings: NHEK in MGM plus single compound or combination; MGM control set 100%
Description: Alternatively, cell number was directly assessed by measuring the amount of DNA using the CyQuant® Direct Cell Proliferation Assay kit (Invitrogen). In brief, the two CyQuant® kit solutions were mixed and added to the respective culture medium as described by the supplier. The fluorescence of the DNA intercalating CyQuant® Dye, representing the amount of cells, was recorded at 480Ex/535Em nm using a Synergy™ H4 plate reader (BioTek Instruments). Increase of the number of cells is used as indirect indicator of cell proliferation.
Mean values of relative fluorescence/luminescence units (RFU/RLU) and standard deviation of replicates were analysed by Gene5 software. For a better estimation of test compound's potential metabolic activity and proliferation measured in MGM were set as 100%. Statistical significance was assessed by comparing mean (+/-SD) values with Student's t-test for independent groups.
For measurements of metabolic activity and proliferation, NHEK were seeded at 30,000 cells/cm^2 into a 48-well microtiter flat bottom plate. After over night incubation growth medium 2 was replaced by BM, MGM, and MGM plus test compounds. The test compounds were dissolved in DMSO, diluted into MGM and added to the cells. 4 to 6 replicates/concentration were tested. […]

[2] = test system: NHEK (normal human epidermal keratinocytes); assay: Minimal growth assay: metabolic activity by resazurin assay of NHEK cultivated in minimal growth medium (MGM) plus test compound; format: cell-based; settings: for metabolic activity/cell number compared to the MGM control: highest value of the dose-dependent increase; for dose-depending increase of metabolic activity/cell number compared to the MGM control: 48 h and 72 h, increasing concentrations in MGM; for activity at 100 µM: 100 µm test compound
Description: Metabolic activity was measured by a resazurin assay. In this assay, non-fluorescent resazurin is reduced to fluorescent resorufin in viable cells only. The resulting signal is proportional to the number of cells present and, thus, is an indirect measure of cell number. The assay was carried out by diluting a resazurin (Sigma) stock solution (0,1 mg/ml in PBS) in the respective culture medium at a ratio of 1:11. The resazurin conversion to the fluorescent resorufin by metabolically active cells was recorded at 560Ex/590Em nm using a Synergy™ H4 plate reader (BioTek Instruments). Mean values of relative fluorescence/luminescence units (RFU/RLU) and standard deviation of replicates were analysed by Gene5 software. […] Statistical significance was assessed by comparing mean (+/-SD) values with Student's t-test for independent groups. NHEK were seeded at 30.000 cells/cm^2 into 48-well flat bottom tissue culture plates and cultured in normal keratinocyte growth medium ("GM") at 37°C and 5% CO2. After 12 to 15 h (typically over night) the media was exchanged to MGM with different concentrations of test compound. Controls receive MGM without compounds. Test compounds 1 to 4 (1: […] Ca^2+-pantothenate; 4: folic acid) were prepared according to Table 1 to yield respective stock solutions. The stock solutions were further diluted in minimal growth media (MGM) to obtain different test compound concentrations. […] The negative control wells contained media only plus the respective solvent. Table 1. Test compound and control solutions […] The test compounds were dissolved in DMSO, diluted into MGM and added to the cells. 4 to 6 replicates/concentration were tested. […] Metabolic activity after 48 h (see FIG. 4) and 72 h after incubation (see FIG. 5) was determined by the resazurin assay, and proliferation after 48 h and 72 h after incubation was measured using the CyQuant® Direct Cell Proliferation Assay kit (data not shown).

[3] = after 48 h, MGM control set 100%
[4] = after 72 h, MGM control set 100%
[5] = Homo sapiens, NHEK, after 72 h, MGM control set 100%, read-out: metabolic activity compared to the MGM control

Row | Structure (SMILES) | proliferation (DNA amount) compared to the MGM control [1] | metabolic activity/cell number compared to the MGM control [2, 3] | metabolic activity/cell number compared to the MGM control [2, 4] | dose-depending increase of metabolic activity/cell number compared to the MGM control [2] | activity at 100 µM ([2]; Homo sapiens, NHEK, after 48 h, MGM control set 100%, read-out: metabolic activity compared to the MGM control) | activity at 100 µM [2, 5] | activity at 5 µM ([2]; Homo sapiens, NHEK, 5 µm test compound, after 48 h, MGM control set 100%, read-out: metabolic activity compared to the MGM control)
1 | N[C@@H](CSSC[C@H](N)C(=O)O)C(=O)O [L-cystine] | 282% | up to 265% | up to 419% | – | – | – | –
2 | Cc1ncc(C[n+]2csc(CCO)c2C)c(N)n1 [Thiamin, thiamine] | – | up to 138% | up to 163% | – | – | – | –
3 | Nc1nc2ncc(CNc3ccc(C(=O)N[C@@H](CCC(=O)O)C(=O)O)cc3)nc2c(=O)[nH]1 [folic acid] | – | – | – | did not demonstrate a dose-depending increase | 113% | 118% | –
4 | CC(C)(CO)[C@@H](O)C(=O)NCCC(=O)O [pantothenate, Ca^2+-pantothenate] | – | – | – | did not show a dose-depending increase | – | 110% | 111%
